Assay results published in US8431702B2, “Therapeutically useful substituted hydropyrido [3,2,1-ij] quinoline compounds” (Allergan, Inc., priority 2008, dated 2013).
Where two headings read alike, the source gives them in different places.

Target: T1, human S1P3 receptor (Homo sapiens, UniProt Q99500)
T1 construct: expressed in transfected cells
Assay: FLIPR calcium (Fluo-4) assay for activation or block of activation of human S1P3 receptor in T24 cells
Type: cell-based
Procedure: The compounds of the invention are assessed for their ability to activate or block activation of the human S1P3 receptor in T24 cells stably expressing the human S1P3 receptor using the method described in paragraph [0067] of United States Patent Application Publication No. 20070232682, which published on Oct. 4, 2007, which is hereby incorporated by reference in its entirety.
Ten thousands cells/well are plated into 384-well poly-D-lysine coated plates one day prior to use. The growth media for the S1P3 receptor expressing cell line is McCoy's 5A medium supplemented with 10% charcoal-treated fetal bovine serum (FBS), 1% antibiotic-antimycotic and 400 μg/ml geneticin. On the day of the experiment, the cells are washed twice with Hank's Balanced Salt Solution supplemented with 20 mM HEPES (HBSS/Hepes buffer). The cells are then dye loaded with 2 μM Fluo-4 diluted in the HBSS/Hepes buffer with 1.25 mM Probenecid and incubated at 37° C. for 40 minutes. Extracellular dye is removed by washing the cell plates four times prior to placing the plates in the FLIPR (Fluorometric Imaging Plate Reader, Molecular Devices). Ligands are diluted in HBSS/Hepes buffer and prepared in 384-well microplates. The positive control, Sphingosine-1-phosphate (S1P), is diluted in HBSS/Hepes buffer with 4 mg/ml fatty acid free bovine serum albumin. The FLIPR transfers 12.5 μl from the ligand microplate to the cell plate and takes fluorescent measurements for 75 seconds, taking readings every second, and then for 2.5 minutes, taking readings every 10 seconds. Compounds are tested over the concentration range of 0.61 nM to 10,000 nM. Data for calcium ion (Ca^+2) responses are obtained in arbitrary fluorescence units and not translated into Ca^+2 concentrations. IC50 values (nM) are determined through a […] analysis using the Levenburg Marquardt algorithm.

[1] = T24 cells stably expressing the human S1P3 receptor, tested over 0.61 nM to 10,000 nM
[2] = T24 cells stably expressing the human S1P3 receptor, tested over 0.61 nM to 10,000 nM, read-out: S1P3 IC50

T1 sequence (Q99500 whole entry): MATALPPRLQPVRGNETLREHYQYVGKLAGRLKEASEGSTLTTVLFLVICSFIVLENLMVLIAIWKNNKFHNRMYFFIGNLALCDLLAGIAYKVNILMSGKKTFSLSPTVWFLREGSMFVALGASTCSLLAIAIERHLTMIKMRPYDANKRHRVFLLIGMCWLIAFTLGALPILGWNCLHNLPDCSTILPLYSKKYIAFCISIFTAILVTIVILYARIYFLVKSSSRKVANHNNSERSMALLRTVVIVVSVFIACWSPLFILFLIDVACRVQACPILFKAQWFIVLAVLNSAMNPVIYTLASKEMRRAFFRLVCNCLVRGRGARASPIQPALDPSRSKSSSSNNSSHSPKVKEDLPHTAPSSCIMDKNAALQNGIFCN

Row | Compound | S1P3 % Inhibition [1] [%] | IC50 [2] [nM] | IC50 [nM]
1 | O=C(Nc1cc2c3c(c1)C(c1ccc(F)cc1)CCN3CCC2c1ccc(F)cc1)OCCF (centres unmarked) [Compound 067] | 98 | 8 | –
2 | CCOC(=O)Nc1cc2c3c(c1)C(c1cccc(F)c1)CCN3CCC2c1cccc(F)c1 (centres unmarked) [Compound 093, Ethyl 1,7-bis(3-fluorophenyl)-1,2,3,5,6,7-hexahydropyrido[3,2,1-ij]quinolin-9-ylcarbamate] | 102 | – | –
3 | CCCOC(=O)Nc1cc2c3c(c1)C(c1cccc(F)c1)CCN3CCC2c1cccc(F)c1 (centres unmarked) [Compound 094, Propyl 1,7-bis(3-fluorophenyl)-1,2,3,5,6,7-hexahydropyrido[3,2,1-ij]quinolin-9-ylcarbamate] | 101 | – | –
4 | CCCCOC(=O)Nc1cc2c3c(c1)C(c1cccc(F)c1)CCN3CCC2c1cccc(F)c1 (centres unmarked) [Compound 202, Butyl 1,7-bis(3-fluorophenyl)-1,2,3,5,6,7-hexahydropyrido[3,2,1-ij]quinolin-9-ylcarbamate] | 98 | – | –
5 | CCNC(=O)Nc1cc2c3c(c1)[C@](C)(c1ccccc1)CCN3CC[C@@]2(C)c1ccccc1 [Compound 249, 1-((1S,7S)-1,7-dimethyl-1,7-diphenyl-1,2,3,5,6,7-hexahydropyrido[3,2,1-ij]quinolin-9-yl)-3-ethylurea] | 100 | 194 | –
6 | CCCNC(=O)Nc1cc2c3c(c1)[C@](C)(c1ccccc1)CCN3CC[C@@]2(C)c1ccccc1 [Compound 250, 1-((1S,7S)-1,7-dimethyl-1,7-diphenyl-1,2,3,5,6,7-hexahydropyrido[3,2,1-ij]quinolin-9-yl)-3-propylurea] | 100 | 523 | –
7 | CCCCCCNC(=S)Nc1cc2c3c(c1)C(c1ccccc1)CCN3CCC2c1ccccc1 (centres unmarked) [Compound 256, 1-(1,7-diphenyl-1,2,3,5,6,7-hexahydropyrido[3,2,1-ij]quinolin-9-yl)-3-hexylthiourea] | 100 | – | –
8 | O=C(NCc1ccoc1)Nc1cc2c3c(c1)C(c1ccccc1)CCN3CCC2c1ccccc1 (centres unmarked) [Compound 258, 1-(1,7-diphenyl-1,2,3,5,6,7-hexahydropyrido[3,2,1-ij]quinolin-9-yl)-3-(furan-3-ylmethyl)urea] | 100 | – | –
9 | COC(=O)Nc1cc2c3c(c1)C(c1ccc(F)cc1)CCN3CCC2c1ccc(F)cc1 (centres unmarked) [Compound 268] | 98 | 5 | –
10 | O=C(Nc1cc2c3c(c1)C(c1ccccc1)CCN3CCC2c1ccccc1)Oc1ccccc1 (centres unmarked) [Compound 277, Phenyl 1,7-diphenyl-1,2,3,5,6,7-hexahydropyrido[3,2,1-ij]quinolin-9-ylcarbamate] | 91 | – | –
11 | O=C(Nc1cc2c3c(c1)C(c1ccccc1)CCN3CCC2c1ccccc1)OCc1ccccc1 (centres unmarked) [Compound 278, Benzyl 1,7-diphenyl-1,2,3,5,6,7-hexahydropyrido[3,2,1-ij]quinolin-9-ylcarbamate] | 101 | – | –
12 | CCCOC(=O)Nc1cc2c3c(c1)[C@@](C)(c1ccccc1)CCN3CC[C@@]2(C)c1ccccc1 [Compound 355, Propyl (1R,7S)-1,7-dimethyl-1,7-diphenyl-1,2,3,5,6,7-hexahydropyrido[3,2,1-ij]quinolin-9-ylcarbamate] | 98 | 316 | –
13 | CCCNC(=O)c1cc2c3c(c1)C(c1ccccc1)CCN3CCC2c1ccccc1 (centres unmarked) [Compound 409, 1,7-diphenyl-N-propyl-1,2,3,5,6,7-hexahydropyrido[3,2,1-ij]quinoline-9-carboxamide] | 89 | 874 | –
14 | CCCCNC(=O)c1cc2c3c(c1)C(c1ccccc1)CCN3CCC2c1ccccc1 (centres unmarked) [Compound 481, N-butyl-1,7-diphenyl-1,2,3,5,6,7-hexahydropyrido[3,2,1-ij]quinoline-9-carboxamide] | 98 | 210 | –
15 | CCCCCCNC(=O)Nc1cc2c3c(c1)C(c1ccccc1)CCN3CCC2c1ccccc1 (centres unmarked) [Compound 487, 1-(1,7-diphenyl-1,2,3,5,6,7-hexahydropyrido[3,2,1-ij]quinolin-9-yl)-3-hexylurea] | 100 | – | –
16 | CC(C)(C)NC(=O)Nc1cc2c3c(c1)[C@@](C)(c1ccccc1)CCN3CC[C@@]2(C)c1ccccc1 [Compound 580, 1-t-butyl-3-((1R,7S)-1,7-dimethyl-1,7-diphenyl-1,2,3,5,6,7-hexahydropyrido[3,2,1-ij]quinolin-9-yl)urea] | 99 | – | 62
17 | CC(C)(C)NC(=O)Nc1cc2c3c(c1)[C@](C)(c1ccccc1)CCN3CC[C@@]2(C)c1ccccc1 [Compound 581, 1-t-butyl-3-((1S,7S)-1,7-dimethyl-1,7-diphenyl-1,2,3,5,6,7-hexahydropyrido[3,2,1-ij]quinolin-9-yl)urea] | 98 | 349 | –
18 | CSC(=O)Nc1cc2c3c(c1)[C@@](C)(c1ccccc1)CCN3CC[C@@]2(C)c1ccccc1 [Compound 582, S-methyl (1R,7S)-1,7-dimethyl-1,7-diphenyl-1,2,3,5,6,7-hexahydropyrido[3,2,1-ij]quinolin-9-ylcarbamothioate] | 99 | – | 4

Second part, led by results:

Row | S1P3 % Inhibition [1] [%] | IC50 [2] [nM] | Compound | IC50 [nM]
19 | 102 | – | O=C(Nc1cc2c3c(c1)C(c1ccccc1)CCN3CCC2c1ccccc1)OCCF (centres unmarked) [Compound 095, 2-fluoroethyl 1,7-diphenyl-1,2,3,5,6,7-hexahydropyrido[3,2,1-ij]quinolin-9-ylcarbamate] | –
20 | 101 | – | CC(C)(C)NC(=O)Nc1cc2c3c(c1)C(c1ccccc1)CCN3CCC2c1ccccc1 (centres unmarked) [Compound 148, 1-tert-butyl-3-(1,7-diphenyl-1,2,3,5,6,7-hexahydropyrido[3,2,1-ij]quinolin-9-yl)urea] | –
21 | 99 | – | O=C(Nc1cc2c3c(c1)C(c1ccccc1)CCN3CCC2c1ccccc1)OCCCCl (centres unmarked) [Compound 205, 3-chloropropyl 1,7-diphenyl-1,2,3,5,6,7-hexahydropyrido[3,2,1-ij]quinolin-9-ylcarbamate] | –
22 | 100 | – | O=C(Nc1cc2c3c(c1)C(c1ccccc1)CCN3CCC2c1ccccc1)OCCCCCl (centres unmarked) [Compound 206, 4-chlorobutyl 1,7-diphenyl-1,2,3,5,6,7-hexahydropyrido[3,2,1-ij]quinolin-9-ylcarbamate] | –
23 | 99 | – | CCCNC(=S)Nc1cc2c3c(c1)C(c1ccccc1)CCN3CCC2c1ccccc1 (centres unmarked) [Compound 255, 1-(1,7-diphenyl-1,2,3,5,6,7-hexahydropyrido[3,2,1-ij]quinolin-9-yl)-3-propylthiourea] | –
24 | 102 | – | COC(=O)Nc1cc2c3c(c1)C(c1ccccc1)CCN3CCC2c1ccccc1 (centres unmarked) [Compound 272, methyl 1,7-diphenyl-1,2,3,5,6,7-hexahydropyrido[3,2,1-ij]quinolin-9-ylcarbamate] | –
25 | 101 | – | CCOC(=O)Nc1cc2c3c(c1)C(c1ccccc1)CCN3CCC2c1ccccc1 (centres unmarked) [Compound 273, Ethyl 1,7-diphenyl-1,2,3,5,6,7-hexahydropyrido[3,2,1-ij]quinolin-9-ylcarbamate] | –
26 | 100 | – | CC(C)COC(=O)Nc1cc2c3c(c1)C(c1ccccc1)CCN3CCC2c1ccccc1 (centres unmarked) [Compound 274, Isobutyl 1,7-diphenyl-1,2,3,5,6,7-hexahydropyrido[3,2,1-ij]quinolin-9-ylcarbamate] | –
27 | 100 | – | CCCOC(=O)Nc1cc2c3c(c1)C(c1ccccc1)CCN3CCC2c1ccccc1 (centres unmarked) [Compound 275, Propyl 1,7-diphenyl-1,2,3,5,6,7-hexahydropyrido[3,2,1-ij]quinolin-9-ylcarbamate] | –
28 | 101 | – | CCCCOC(=O)Nc1cc2c3c(c1)C(c1ccccc1)CCN3CCC2c1ccccc1 (centres unmarked) [Compound 276, Butyl 1,7-diphenyl-1,2,3,5,6,7-hexahydropyrido[3,2,1-ij]quinolin-9-ylcarbamate] | –
29 | 97 | – | C#CCOC(=O)Nc1cc2c3c(c1)C(c1ccccc1)CCN3CCC2c1ccccc1 (centres unmarked) [Compound 352, Prop-2-ynyl 1,7-diphenyl-1,2,3,5,6,7-hexahydropyrido[3,2,1-ij]quinolin-9-ylcarbamate] | –
30 | 98 | – | CN(C)C(=O)Nc1cc2c3c(c1)C(c1ccccc1)CCN3CCC2c1ccccc1 (centres unmarked) [Compound 405, 3-(1,7-diphenyl-1,2,3,5,6,7-hexahydropyrido[3,2,1-ij]quinolin-9-yl)-1,1-dimethylurea] | –
31 | 101 | – | CCNC(=O)Nc1cc2c3c(c1)C(c1ccccc1)CCN3CCC2c1ccccc1 (centres unmarked) [Compound 484, 1-(1,7-diphenyl-1,2,3,5,6,7-hexahydropyrido[3,2,1-ij]quinolin-9-yl)-3-ethylurea] | –
32 | 100 | – | CCCCNC(=O)Nc1cc2c3c(c1)C(c1ccccc1)CCN3CCC2c1ccccc1 (centres unmarked) [Compound 485, 1-Butyl-3-(1,7-diphenyl-1,2,3,5,6,7-hexahydropyrido[3,2,1-ij]quinolin-9-yl)urea] | –
33 | 100 | 82 | CCCCCNC(=O)Nc1cc2c3c(c1)C(c1ccccc1)CCN3CCC2c1ccccc1 (centres unmarked) [Compound 486, 1-(1,7-diphenyl-1,2,3,5,6,7-hexahydropyrido[3,2,1-ij]quinolin-9-yl)-3-pentylurea] | –
